Laboratory results taken from patent US20260193255A1, “7-AZAINDOLE COMPOUNDS, PREPARATION METHOD THEREFOR, AND USE THEREOF” (Fudan University, priority 2022, published 2026).

Tests used:
mouse myoblasts (C2C12) = assay: Atrophy of mouse myoblasts (C2C12) induced by C26 cell supernatant, myotube diameter by HE staining; format: cell-based; conditions: 48 hours treatment, C26 supernatant-induced C2C12 myotubes
Description: C2C12 cells were inoculated in 24-well plates. The culture system was high-glucose DMEM medium containing 10% FBS with 1% penicillin-streptomycin. The plates were placed in a 5% CO2, 37° C. environment. When the cell growth density reached 50%-60%, the culture system was replaced with high-glucose DMEM culture medium containing 2% HS with 1% penicillin-streptomycin. Fresh 2% HS differentiation medium was replaced every 48 hours, and the cells were differentiated into mature cells on the 5th or 6th day. Additionally, C26 cells were inoculated in T75 flasks. The culture system was high-glucose DMEM medium containing 10% FBS with 1% penicillin-streptomycin. The flasks were placed in a 5% CO2, 37° C. environment. When subculturing, the cells were subcultured at 6 million cells/flask. After culturing in 20 ml of culture medium for 48 hours, the supernatant was collected and centrifuged at 1000 rpm for 3 mins. The supernatant was collected and centrifuged at 4000 rpm for 10 mins to obtain the C26 supernatant. The C26 supernatant and 2% HS differentiation solution were mixed at a ratio of 1:1 (volume ratio) as the muscle atrophy induction solution. Except for the control group in which 2% HS differentiation solution was added, for the other groups, an equivalent amount of muscular atrophy induction solution was added. One group was used as the model group, and the other groups were used as the treatment and experimental groups.
The diameter of myotubes after differentiation of mouse myoblasts (C2C12) was evaluated by using the diameter measurement method. The method for measuring the diameter of myotubes was as follows: after 48 hours of treatment, the myotubes were fixed with a fixative (anhydrous ethanol: formaldehyde: glacial acetic acid (volume ratio)=20:2:1) for more than 1 h and stained. The staining method used in the experiment is hematoxylin-eosin staining, referred to as HE staining for short. Hematoxylin stain is alkaline and positively charged, and it can easily bind to the negatively charged and acidic deoxyribonucleic acid (DNA) in the cell nucleus through ionic bonds to stain it blue; eosin is an acidic dye that dissociates into negatively charged anions in water, and it can easily bind to the positively charged amino groups of proteins in the cytoplasm to stain it red. The stained cells were placed under a high-power microscope to take pictures (magnification: 200 times), and the diameter of myotube cells was statistically analyzed using image J software. The muscle atrophy reversal rate was calculated according to the following formula: Muscle atrophy reversal rate=(average value of myotubes in the treatment group-average value of myotubes in the model group)/(average value of myotubes in the control group-average value of myotubes in the model group)×100%

ActRIIB = ActRIIB (Homo sapiens, UniProt Q13705); assay: ActRIIB inhibitory activity, ADP-Glo assay kit; format: biochemical; conditions: ATP 25 μM, substrate 0.1 mg/mL, ActRIIB 20.0 ng/μL
Chain of ActRIIB (Q13705 19-512): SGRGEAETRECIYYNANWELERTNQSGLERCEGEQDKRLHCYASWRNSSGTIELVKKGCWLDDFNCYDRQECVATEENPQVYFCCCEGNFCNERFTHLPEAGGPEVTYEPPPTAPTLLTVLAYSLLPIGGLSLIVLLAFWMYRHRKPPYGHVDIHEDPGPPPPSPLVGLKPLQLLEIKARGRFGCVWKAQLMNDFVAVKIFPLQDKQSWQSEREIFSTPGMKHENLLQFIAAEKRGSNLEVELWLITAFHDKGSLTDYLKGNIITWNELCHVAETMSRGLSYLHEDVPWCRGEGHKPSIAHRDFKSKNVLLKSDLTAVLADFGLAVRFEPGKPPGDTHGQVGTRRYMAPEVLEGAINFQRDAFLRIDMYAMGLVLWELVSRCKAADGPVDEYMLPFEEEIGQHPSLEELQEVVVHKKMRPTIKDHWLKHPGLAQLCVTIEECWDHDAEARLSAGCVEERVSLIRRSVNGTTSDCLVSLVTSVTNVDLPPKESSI
Description: The ATP and substrate concentrations recommended by the ADP-Glo™ assay kit were used, which were 25 μM and 0.1 mg/mL, respectively, and a series of isocratic final ActRIIB concentrations were set up, which were 0, 0.47, 0.94, 1.88, 3.75, 7.5, 15, 30, and 60 ng/μL, respectively. According to the […] values obtained in the experiment, an ActRIIB concentration titration curve was drawn. The ActRIIB concentrations corresponding to the ratio of the signal value to the background value (i.e., signal-to-background ratio, SBR) in the range of 5-10 times are suitable for screening compounds for inhibition of ActRIIB activity. From the ActRIIB concentration titration curve, the final ActRIIB concentrations corresponding to SB5 and SB10 were calculated to be 14.9 and 23.7 ng/μL, respectively. Finally, a final concentration of 20.0 ng/μL was selected as the experimental concentration for screening compounds for their inhibitory activity against ActRIIB. The inhibitory efficiency of 7-azaindole compounds on ActRIIB was detected at concentrations of 0.1, 1, 10, and 100 nM, respectively.

[1] = Mus musculus, read-out: Myotube atrophy reversal rate

Row | IC50 (ActRIIB) [nM] | Compound | inhibition at 5 µM (mouse myoblasts (C2C12); [1]) [%] | inhibition at 10 µM (mouse myoblasts (C2C12); [1]) [%] | Myotube atrophy reversal rate (mouse myoblasts (C2C12); 1.25 μM) [%] | inhibition at 2.5 µM (mouse myoblasts (C2C12); [1]) [%] | inhibition at 1.25 µM (mouse myoblasts (C2C12); Mus musculus, 1.25 μM, read-out: Myotube atrophy reversal rate) [%]
1 | 58.6 | Cc1n[nH]cc1-c1c[nH]c2ncc(-c3ccc(N4CCN(C)CC4)cc3)cc12 [Compound 4, 3-(3-methyl-1H-pyrazol-4-yl)-5-[4-(4-methylpiperazin-1-yl)phenyl]-1H-pyrrolo[2,3-b]pyridine] | 63.6 | – | – | – | –
2 | 24.2 | Cc1noc(C)c1-c1c[nH]c2ncc(-c3ccc(N4CCN(C)CC4)cc3)cc12 [Compound 19, 3-(3,5-dimethylisoxazol-4-yl)-5-[4-(4-methylpiperazin-1-yl)phenyl]-1H-pyrrolo[2,3-b]pyridine] | 69.4 | – | – | – | –
3 | 20.4 | CN1CCN(c2ccc(-c3cnc4[nH]cc(-c5cn[nH]c5)c4c3)cc2)CC1 [Compound 1, 3-(1H-pyrazol-4-yl)-5-[4-(4-methylpiperazin-1-yl)phenyl]-1H-pyrrolo[2,3-b]pyridine] | – | – | – | 63.5 | –
4 | 1.2 | Cc1n[nH]c(C)c1-c1c[nH]c2ncc(-c3ccc(N4CCN(C)CC4)cc3)cc12 [Compound 5, 3-(3,5-dimethyl-1H-pyrazol-4-yl)-5-[4-(4-methylpiperazin-1-yl)phenyl]-1H-pyrrolo[2,3-b]pyridine] | 79.5 | – | – | – | –
5 | 1.4 | CN1CCN(c2ccc(-c3cnc4[nH]cc(-c5ccnn5C)c4c3)cc2)CC1 [Compound 6, 5-[4-(4-methylpiperazin-1-yl)phenyl]-3-(2-methylpyrazol-3-yl)-1H-pyrrolo[2,3-b]pyridine] | 79.1 | 99.8 | – | 45.9 | –

The next lines start with the molecule.

Row | Compound | IC50 (ActRIIB) [nM] | inhibition at 5 µM (mouse myoblasts (C2C12); [1]) [%] | inhibition at 10 µM (mouse myoblasts (C2C12); [1]) [%] | Myotube atrophy reversal rate (mouse myoblasts (C2C12); 1.25 μM) [%] | inhibition at 2.5 µM (mouse myoblasts (C2C12); [1]) [%] | inhibition at 1.25 µM (mouse myoblasts (C2C12); Mus musculus, 1.25 μM, read-out: Myotube atrophy reversal rate) [%]
6 | Cn1nccc1-c1c[nH]c2ncc(-c3ccc(N4CCOCC4)cc3)cc12 [Compound 16, 3-(2-methylpyrazol-3-yl)-5-[4-(1,4-oxazacyclohexan-4-yl)phenyl]-1H-pyrrolo[2,3-b]pyridine] | 1.86 | 78 | – | – | – | –
7 | Cn1nccc1-c1c[nH]c2ncc(-c3ccc(OCCN4CCOCC4)cc3)cc12 [Compound 12, 3-(2-methylpyrazol-3-yl)-5-(4-{[2-(1,4-oxazacyclohexan-4-yl)ethyl]oxy}phenyl)-1H-pyrrolo[2,3-b]pyridine] | – | 73.8 | – | – | – | –
8 | Cn1nccc1-c1c[nH]c2ncc(-c3ccc(OCCN4CCCCC4)cc3)cc12 [Compound 13, 5-(4-{[2-(hexahydropyridin-1-yl)ethyl]oxy}phenyl)-3-(2-methylpyrazol-3-yl)-1H-pyrrolo[2,3-b]pyridine] | 12.6 | – | 86.2 | – | – | –
9 | CN1CCN(c2ccc(-c3cnc4[nH]cc(-c5cncnc5)c4c3)cc2)CC1 [Compound 23, 5-[4-(4-methylpiperazin-1-yl)phenyl]-3-(pyrimidin-5-yl)-1H-pyrrolo[2,3-b]pyridine] | 4.8 | 97.9 | – | – | – | –
10 | c1cc(-c2c[nH]c3ncc(-c4ccc(OCCN5CCOCC5)cc4)cc23)n[nH]1 [Compound 20, 3-(1H-pyrazol-3-yl)-5-(4-[[2-(1,4-oxazacyclohexan-4-yl)ethyl]oxy]phenyl)-1H-pyrrolo[2,3-b]pyridine] | – | – | – | 54.04 | – | –
11 | CN1CCN(Cc2ccc(-c3cnc4[nH]cc(-c5ccnn5C)c4c3)cc2)CC1 [Compound 15, 5-{4-[(4-methylpiperazin-1-yl)methyl]phenyl}-3-(2-methylpyrazol-3-yl)-1H-pyrrolo[2,3-b]pyridine] | – | 99.1 | 109 | – | 47.5 | –
12 | Cn1nccc1-c1c[nH]c2ncc(-c3ccc(N4CCNCC4)cc3)cc12 [Compound 17, 3-(2-methylpyrazol-3-yl)-5-[4-(piperazin-1-yl)phenyl]-1H-pyrrolo[2,3-b]pyridine] | 3.61 | 97.7 | – | – | 65 | 39.9
13 | CN1CCN(C(=O)c2ccc(-c3cnc4[nH]cc(-c5ccnn5C)c4c3)cc2)CC1 [Compound 14, (4-methylpiperazin-1-yl) {4-[3-(2-methylpyrazol-3-yl)-1H-pyrrolo[2,3-b]pyridin-5-yl]phenyl}ketone] | – | – | 57 | – | – | –
